Data set [1] deals with EMT6 murine mammary carcinoma cells. The data set is described as follows: Aerobic/hypoxic cell survival (clonogenic assay), EMT6. In kind it is cell-based. The settings on record: for in vitro cytotoxic activity to EMT6 cells versus parental racemic drug (potency and aerobic/hypoxic differential): de-phosphorylated enantiomers, aerobic/hypoxic cell assay; for cell kill: 0.1% oxygen, 10 μM drug concentration; for cell kill / cytotoxicity to EMT6 cells under oxygenated conditions: FIG. 5; for drug activity as a function of oxygen concentration: 10 or 25 μM, oxygen 0.05% to 21%, FIG. 6; for cytotoxicity to EMT6 cells under oxygenated conditions: normal air (21% oxygen), concentrations up to 25 μM. The procedure: (§1) EMT6 or CHO (parental or human cytochrome P-450 reductase transfected) cells, seeded in glass milk dilution bottles, were gassed for 2 hours through a rubber septum fitted with 13 gauge (inflow) and 18 gauge (outflow) needles with a mixture of 5% CO2, oxygen at various concentrations, with the balance of the mixture made up of nitrogen, to establish various hypoxic conditions. Drugs were then injected without disrupting hypoxia. After two hours, cells were collected and plated in a clonogenic assay to determine the surviving fraction, compared to untreated controls.
(§2) For in vitro analysis, KS119W must be converted to KS119OH (1) in an AP-catalyzed reaction shown above in FIG. 2, as the phosphorylated parent drug cannot cross cell membranes. KS119OH is then used in all subsequent in vitro studies shown in this section.
Moreover, the R- and S-enantiomers of KS119W (VNP40541 and VNP40551) were converted to the corresponding de-phosphorylated forms for study in the in vitro aerobic/hypoxic cell assay.

The nature of data set [2]: Solubility of KS119 in co-solvent system. The note with it: polyethylene glycol (PEG) and ethanol co-solvent system, organic solvent or mixture, read-out: solubility in co-solvent system like polyethylene glycol (PEG) and ethanol. Type of data set: physicochemical.
Data set [3] has as its system H460 human lung carcinoma. Type of data set: in vivo, mice. The settings on record: for reduction of final tumor volume compared with control group: H460, daily ip, FIG. 8; for tumor growth inhibition: H460 in CD-1 nude mice, KS119W 4 doses 180 mg/kg and 1 dose 240 mg/kg, CTX 100 mg/kg per dose, ip on days 15, 22, 27, 34, 43, CTX two hours after KS119W, FIG. 9. The procedure: (§3) The anti-tumor effects of aforementioned prodrugs are evaluated in both solid and liquid tumor models, including the B16-F10 murine melanoma, HTB177 human lung carcinoma models, DLD1 human colon carcinoma, EMT-6 murine mammary gland carcinoma, L1210 murine leukemia, lymphoma, prostate cancer, pancreatic cancer, and head-and-neck cancer. The prodrugs are given intravenously, orally, or intraperitoneally at doses from 10 mg/kg to 2000 mg/kg; they are give at different dosing schedules such as 4 times daily, once daily, or once every several days for up to 60 doses. Testing tumor cells were implanted subcutaneously into mice, which were randomized into groups immediately after tumor cell implantation (Day 0). Mice were injected intraperitoneally (ip) with either a bolus injection of 0.1 mL PBS or drug. The treatment was carried out in a designed dosing schedule. Tumor measurement in three dimensions was determined once a week with the formula L×H×W/2, where L, H, and W represent length, height, and width, respectively.
(§4) Efficacy of KS119 was studied in murine tumor model and human xenograft models. EMT-6 murine mammary carcinoma cells (3×10^5 cells/mouse) were implanted subcutaneously into Balb/c mice. H460 human lung carcinoma cells, HT29 human colon carcinoma cells and SHP77 human lung carcinoma cells were established as solid xenografts in nu/nu CD-1 mice and Scid/Beige mice with 7×10^7 cells/mouse, respectively. After implantation, tumors were allowed to grow to a size of 150 to 200 mm^3 before starting treatment with KS119. KS119 was formulated in a solvent containing polyethylene glycol 300 (PEG), ethyl alcohol, citric acid, and ascorbic acid.
(§5) Efficacies of KS119W and KS119 were compared with equivalence molar doses in EMT-6 tumor and H460 tumor models. KS119W was formulated with 0.25M sodium bicarbonate solution. The treatment was started when tumors researched 150 to 200 mm^3, and lasted up to 2 weeks. KS119 at doses of 80 and 100 mg/kg and KS119W at doses of 97.6 and 121.3 mg/kg were daily administrated into mice via ip injection. […] To assess the toxicity of treatment, body weight and peripheral blood cell count were monitored after treatment.
(§6) Combined therapy of KS119W with cytoxan (CTX) was evaluated by using KS119W at dose below the MTD in combination with nontoxic dose of CTX against EMT-6 murine mammary carcinoma and H460 human lung carcinoma in CD-1 nude mice. The tumors were allowed to grow to a size of approximately 200 mm^3. In H460 tumor model, the animals received either with 4 doses 180 mg/kg and 1 dose 240 mg/kg of KS119 or CTX at dose of 100 mg/kg per dose per animal, ip injecting the drugs on 15, 22, 27, 34 and 43 days after the tumor implantation. In the combination studies, CTX was given two hours after dosing KS119W.

Data set [4] in a line: Toxicity of treatment in tumor-bearing mice (body weight, blood cell count, appearance). Type of data set: in vivo. The settings on record: for toxicity of treatment (body weight, peripheral blood cell count): KS119 80 and 100 mg/kg, KS119W 97.6 and 121.3 mg/kg, daily ip. The procedure: as §3, with “respectively. The toxicity of these drugs in mice was mild as determined by body weight loss and animal appearance.” for “respectively.”
Efficacies of KS119W and KS119 were compared with equivalence molar doses in EMT-6 tumor and H460 tumor models. KS119W was formulated with 0.25M sodium bicarbonate solution. The treatment was started when tumors researched 150 to 200 mm^3, and lasted up to 2 weeks. KS119 at doses of 80 and 100 mg/kg and KS119W at doses of 97.6 and 121.3 mg/kg were daily administrated into mice via ip injection. […] The toxicity of KS119 and KS119W were dose-dependent. To assess the toxicity of treatment, body weight and peripheral blood cell count were monitored after treatment.
as §6, with “KS119W. […] The inhibition of combination therapy was statistically significant against all control groups with p values of 0.003, 0.015 and 0.038, respectively. Additive toxicity at the doses used for combination was manageable; while the 180 mg/kg qw ×4 doses of KS119W alone caused a maximum net body weight loss of 4.5%, the same dose in combination with 4 doses of CTX at 100 mg/kg per week caused 8.6% weight loss but no death. A similar degree of growth inhibition was also observed with EMT-6 tumor model. […]” for “KS119W.”

For data set [5], the system named is EMT-6 murine mammary carcinoma. In kind it is in vivo, mice. The note with it: for tumor growth inhibition: EMT-6, KS119W daily 97 mg/kg for 7 doses, CTX 100 mg/kg ip once per week for 4 doses. The procedure:
as §3, §4, §5, §6

For data set [6], the system named is CHO-SCS-II (non-transfected parental line). The data set is described as follows: Aerobic/hypoxic cell survival, parental CHO cells. The settings on record: drug 10 μM. In kind it is cell-based. On the procedure: as §1, §2
(§7) Like KS119, cytochrome P-450 reductase can activate KS1190H under hypoxic conditions.

The subject of data set [7] is CHO-450red (human cytochrome P-450 reductase transfected CHO cells). Put plainly: Aerobic/hypoxic cell survival, cytochrome P-450 reductase transfected CHO cells. The note with it: drug 10 μM. In kind it is cell-based. On the procedure:
as §1, §2, §7

For data set [8], the system named is SHP77 human lung carcinoma. The data set is described as follows: In vivo anti-tumor activity, SHP77 xenograft. Also noted: species or system mice. The settings on record: SHP77/Scid-Beige; dose VNP40541 110 mpk, VNP40551 85 mpk. On the procedure:
as §3, with “respectively. The toxicity of these drugs in mice was mild as determined by body weight loss and animal appearance.” for “respectively.”
Efficacy of KS119 was studied in murine tumor model and human xenograft models. EMT-6 murine mammary carcinoma cells (3×10^5 cells/mouse) were implanted subcutaneously into Balb/c mice. […]

Data set [9] is described as follows: Maximum tolerated dose (MTD) finding. Type of data set: in vivo, mice. The procedure: In order to fairly select a better compound from two enantiomers of KS119W for future clinical development, finding maximum tolerated dose (MTD) for VNP40541 (R-form) and VNP40551 (S-form) was conducted and the results were shown as Table 3.
[10] abbreviates: KS119W 97.2 mg/kg ×10 doses, KS119 equal molar dose 80 mg/kg.
Where [11] appears, read: KS119W 121.6 mg/kg ×7 doses, KS119 equal molar dose 100 mg/kg.

Like-named read-outs stand apart in the source and are kept apart here. Where only a bound is given, the exact number is not on record here.

`C[C@H](OC(=O)N(N(CCCl)S(C)(=O)=O)S(C)(=O)=O)c1ccc([N+](=O)[O-])c(O)c1` [S-KS119OH]: in [1], the “in vitro cytotoxic activity to EMT6 cells versus parental racemic drug (potency and aerobic/hypoxic differential)” value is “very similar to the parental racemic drug”.

Broadly, the solubility is the dissolved amount per volume that the medium holds. As for `CC(OC(=O)N(N(CCCl)S(C)(=O)=O)S(C)(=O)=O)c1ccc([N+](=O)[O-])cc1` (stereo not shown) [KS119, 1,2-Bis(methylsulfonyl)-2-(2-chloroethyl)-hydrazine carboxylic acid 1-(4-nitrophenyl)ethyl ester, reference compound], the solubility in data set [2] is below 5 mg/mL. For the same compound, in [1], the cell kill is reported as ~5 orders of magnitude, the “drug activity as a function of oxygen concentration” value is listed as “significant drug activity at all oxygen concentrations below 10% oxygen” and the “cytotoxicity to EMT6 cells under oxygenated conditions” value was “virtually inactive”. For the same compound, in [3] (setting [10]), the “reduction of final tumor volume compared with control group” value (from here on “reduction of final tumor volume”) is 40%. The “reduction of final tumor volume” value in data set [3] (setting [11]) is 40%. The “toxicity of treatment (body weight, peripheral blood cell count)” value in data set [4] is recorded as “not significant hematological toxicity or severe weight loss”.

As for `CC(OC(=O)N(N(CCCl)S(C)(=O)=O)S(C)(=O)=O)c1ccc([N+](=O)[O-])c(O)c1` (racemic) [KS119OH], in data set [1], the cell kill was ~5 orders of magnitude, the “drug activity as a function of oxygen concentration” value is recorded as “significant drug activity at all oxygen concentrations below 10% oxygen” and the “cytotoxicity to EMT6 cells under oxygenated conditions” value is “virtually inactive”.

On to `O=P1(N(CCCl)CCCl)NCCCO1` (stereo not shown) [CTX, reference compound], for which the tumor growth inhibition entry was “negligible effect” in [5] and 54% in [3].

With `CC(OC(=O)N(N(CCCl)S(C)(=O)=O)S(C)(=O)=O)c1ccc([N+](=O)[O-])c(OP(=O)(O)O)c1` (stereo not shown) [KS119W, 1,2-Bis(methylsulfonyl)-2-(2-chloroethyl)hydrazine-carboxylic acid 1-(3-dihydrogenphosphonoxy-4-nitrophenyl)ethyl ester], the “Surviving fraction at 0.1% oxygen” value was 0.3336 in data set [6] and 0.009444 in [7]. The “Surviving fraction in air” value in [6] is 1.185; in data set [7], 0.8791. In addition, the values for the tumor growth inhibition in data set [5] and in [3] were 59% and 78%, respectively. Also, the “reduction of final tumor volume” value was determined as 60% in data set [3] (setting [10]) and 78% in [3] (setting [11]). Also, the “toxicity of treatment (body weight, peripheral blood cell count)” value in data set [4] was “not significant hematological toxicity or severe weight loss”. Also, the “maximum net body weight loss” value in data set [4] (KS119W 180 mg/kg qw ×4 doses alone or with 4 doses of CTX at 100 mg/kg per week) came out at 4.5%.

Turning to `C[C@@H](OC(=O)N(N(CCCl)S(C)(=O)=O)S(C)(=O)=O)c1ccc([N+](=O)[O-])c(O)c1` [R-KS119OH], the “in vitro cytotoxic activity to EMT6 cells versus parental racemic drug (potency and aerobic/hypoxic differential)” value in [1] was “very similar to the parental racemic drug”.

For `C[C@H](OC(=O)N(N(CCCl)S(C)(=O)=O)S(C)(=O)=O)c1ccc([N+](=O)[O-])c(OP(=O)(O)O)c1` [VNP40551], the “Surviving fraction at 0.1% oxygen” value in data set [6] is reported as 0.1188; in data set [7] it was 0.002553. In addition, the “Surviving fraction in air” value is given as 1.148 in [6] and 1.015 in data set [7]. Moreover, the “Inhibition (%)” value in data set [5] (EMT6/BLAB-c Mice, dose VNP40541 85-115 mpk, VNP40551 55-85 mpk) is on record as 52-78%; in data set [3] (H460/Nude Mice, dose VNP40541 80-140 mpk, VNP40551 40-80 mpk), 53-80%; in data set [8] it was 82%. Besides, the MTD in data set [9] (BALB/c mice, × 5) was 85 mpk; in data set [9] (Nude CD-1 mice, × 10), 80 mpk; in data set [9] (Scid/Beige mice, × 8), 85 mpk.

The values above are taken from patent publication US7405317B2, “Phosphate-bearing prodrugs of sulfonyl hydrazines as hypoxia-selective antineoplastic agents” (priority 2004, dated 2008).
